Entries after “also recorded” stand apart in the source; their conditions may differ. Where a SMILES comes first, the peptide text is derived from it. The star is where a group is joined. Palmitoyl = CCCCCCCCCCCCCCCC(=O)*
What was measured:
[1] = ATR-FT-IR determination of β-sheet content; type: physicochemical; conditions: 1 mg/mL in PBS lyophilized; integral at 1630 cm^-1 relative to 1650-1700 cm^-1
Protocol: ATR-FT-IR: ATR-IR spectra acquisition and the calculation of β-sheet content were conducted according prior art procedures. Briefly, FT-IR spectra of solid samples were recorded after lyophilization of fibril solutions using a Bruker Tensor II spectrometer equipped with a diamond crystal as ATR element with a spectral resolution of 2 cm^-1, each spectrum was an average of 64 scans. The data was processed with Origin software. β-sheet amount was determined by calculating the integral of the peak at 1630 cm-1 (β-sheet) relative to the integral between 1650-1700 cm-1 (native structure) from the 2nd derivative of the FT-IR spectra.

[2] = TEM of peptide assemblies (fibril formation / assembly); type: physicochemical; conditions: for TEM morphology (in words): 1 mg/mL in PBS; for Assembly without hydrophob residue: corresponding peptide without hydrophobic moiety; for Assembly: peptide amphiphile
Protocol: The peptides were predissolved in DMSO to a concentration of 10 mg/mL. The fibril formation was induced by further diluting the solution to a final incubation concentration of 650 µM or 1 mg/mL in PBS as indicated in the text and incubated for 1 d (1 day) at rt (room temperature, 20 °C - 25 °C). Other concentrations as described herein were achieved by further dilution of preformed fibrils.
(§1) Transmission electron microscopy (TEM) measurements, Thioflavin (ThT), zeta-potential measurements for fibril characterization were prepared and conducted according to prior art procedures. […] Fibrils were defined as distinct, if no visible structures could be identified in fluorescence and brightfield microscopy.

HeLa cells = experiment: Confocal laser scanning microscopy and degradation study with PA library and HeLa cells; type: cell-based; conditions: for degradability (in words) / Degradability / % (rel. to initial particles > 10 µm^2): HeLa cells; for degradability (in words): 3 days; for Degradability / % (rel. to initial particles > 10 µm^2): 3 d relative to 30 min; for aggregate number increases / aggregate number decreases / degraded in presence of HeLa cells within 3 days: d3 relative to d0; for association with cellular membranes: 2 µg added to 20.000 HeLa cells, 30 min
Protocol: In general, the procedure for determine whether a PA is degraded or not, is conducted by confocal laser scanning microscopy of Proteostat stained PAs which are added to Hela cells (2 µg peptide added to 20.000 cells). Microscopy is conducted at day 0 (d0, after 30 min of incubation) and at day 3 (d3, after 72 h of incubation). The number of aggregates >10 µm^2 is counted via 3D object counter in imaged in an area of 1008 µm × 1008 µm.
A PA is considered to be degradable if the number and the size of aggregates are reduced after 3 days. The efficiency is determined by the percentual degradation (aggregate number at d3 / aggregate number at d0). For the number of aggregation three technical replicates were evaluated for each sample. A large deviation represents a nonhomogeneous spatial distribution of aggregates.
Confocal laser scanning microscopy and degradation study with PA library and HeLa cells: Confocal laser scanning microscopy studies were performed for the visualization of the cell-PA interaction. HeLa cells were seeded one day prior to conducting the assay (20,000/well) in an 8-well IBIDI slide. […] The nucleus of the HeLa cells was stained with Hoechst 33342 (NucBlue™, Thermo Fisher Scientific). The peptide solution mixture was transferred to the HeLa cells and incubated for 30 min at 37°C before washing three times with PBS. […] For the evaluation of aggregate degradation, the samples were further incubated at 37°C for 3 d and analyzed without any additional washing step. […] The number of aggregates were determined by counting aggregates larger than the threshold 10 µm^2 in an area of 1008 × 1008 µm and repeated in three technical triplicates.

[3] = Fluorescence microscopy of ThT-stained fibrils (µm-sized aggregates); type: physicochemical; conditions: 1 mg/mL stained with 50 µM ThT
Protocol: as §1
Fluorescence microscopy: 1 µL Fibrils (1 mg mL^-1) were stained with 9 µL, 50 µM ThT. 10 µL of the stained fibrils (0.1 mg mL^-1) were placed on a microscopy glass. Fluorescence microscopy measurements were performed on a Leica DMi8 microscope with 10x air objective and equipped with a Leica MC170 HD camera with a filter setting λem = 527/30 nm upon excitation at λex = 480/40 nm) and processed with the Leica LASX software.

HIV-1 = conditions: for enhancement of HIV-1 infection / transduction (in words): 6.5 µM, 1.3 µM, 0.26 µM; for Infectivity enhancing N fold at 1.3 µM: relative to virus only;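 as to all read-outs here: TZM-bl reporter cells exposed to HIV-1 with peptide fibrils, infection read out as β-galactosidase luminescence, compared with virus alone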
Protocol: HIV-1 Infection Assay with TZM-bl cells: The effect of peptide fibrils on HIV-1 infection was studied via a luminescence assay for β-galactosidase, which was reported by TZM-bl cells upon infection. The HIV-1 infection assay was conducted in three technical replicates and repeated in three independent experiments unless stated otherwise.

Row | SMILES | β-sheet amount [1] [%] | TEM morphology (in words) [2] | Assembly without hydrophob residue [2] | Assembly [2] | degradability (in words) (HeLa cells) | Degradability / % (rel. to initial particles > 10 µm^2) (HeLa cells) [%] | aggregate number increases (HeLa cells) [%] | fluorescent, µm-sized aggregates (ThT staining) [3] | enhances infectivity at 1.3 µM concentration, times more efficient compared to virus only infection (HIV-1) [times] | enhancement of HIV-1 infection / transduction (in words) (HIV-1) | Infectivity enhancing N fold at 1.3 µM (HIV-1) [N fold] | association with cellular membranes (HeLa cells) | infectivity enhancement at 1.3 µM concentration compared to virus only infection (in words) (HIV-1) | aggregate number decreases / degraded in presence of HeLa cells within 3 days (HeLa cells) [%]
1 | CCCCCCCCCCCCCCCC(=O)N[C@@H](C)C(=O)N[C@@H](CCC(N)=O)C(=O)N[C@@H](C)C(=O)N[C@@H](CCCCN)C(=O)N[C@@H](C)C(=O)N[C@@H](CCCCN)C(N)=O [Pat16, C16-AQAKAK-NH2] (Palmitoyl-AQAKAK-NH2) | 50 | fibrillar morphologies | No | Yes | cannot be degraded; also recorded: non-degradable PA | -83 | 83 | fluorescent, µm-sized aggregates | 4 | do not efficiently enhance infectivity | 4±1 | – | – | –
2 | CCCCCCCCCCCCCCCC(=O)N[C@@H](Cc1c[nH]c2ccccc12)C(=O)N[C@@H](CCC(=O)O)C(=O)N[C@@H](C)C(=O)N[C@@H](CC(C)C)C(=O)N[C@@H](CCCCN)C(=O)N[C@@H](CCCCN)C(N)=O [Pat17, C16-WEALKK-NH2] (Palmitoyl-WEALKK-NH2) | 38 | not forming fibrils; also recorded: amorphous aggregate morphology | No | No | – | – | – | fluorescent, µm-sized aggregates | – | no infectivity enhancement can be observed | 1±0 | no association with cellular membranes | does not enhance infectivity | –
3 | CCCCCCCCCCCCCCCC(=O)N[C@@H](C)C(=O)N[C@H](C(=O)N[C@@H](C)C(=O)N[C@@H](CCCCN)C(=O)N[C@@H](CCCCN)C(=O)N[C@@H](CCCCN)C(N)=O)C(C)C [Pat21, C16-AVAKKK-NH2] (Palmitoyl-AVAKKK-NH2) | 45 | fibrillar morphologies | No | Yes | can be degraded; also recorded: not efficiently degradable; also recorded: degradable PA | 68 | – | fluorescent, µm-sized aggregates | 2 | no infectivity enhancement can be observed | 2±0 | association with cellular membranes | – | 84
4 | CCCCCCCCCCCCCCCC(=O)N[C@H](C(=O)N[C@H](C(=O)N[C@@H](C)C(=O)N[C@@H](C)C(=O)N[C@@H](Cc1c[nH]cn1)C(=O)N[C@@H](Cc1c[nH]cn1)C(=O)N[C@@H](Cc1c[nH]cn1)C(N)=O)C(C)C)C(C)C [Pat24, C16-VVAAHHH-NH2] (Palmitoyl-VVAAHHH-NH2) | 70 | fibrillar morphologies | No | Yes | cannot efficiently be degraded; also recorded: not efficiently degradable; also recorded: non-degradable PA | 26 | – | fluorescent, µm-sized aggregates | – | do not efficiently enhance infectivity | 2±0 | association with cellular membranes | does not enhance infectivity | 26
5 | CCCCCCCCCCCCCCCC(=O)N[C@@H](CCCCN)C(=O)NCC(=O)N[C@H](C(=O)N1CCC[C@H]1C(=O)NCC(=O)N[C@H](C(=O)NCC(=O)N[C@@H](CCCCN)C(N)=O)C(C)C)C(C)C [Pat25] (Palmitoyl-KGVPGVGK-NH2) | 0 | not forming fibrils; also recorded: no fibrillar morphologies | Yes | No | – | – | – | fluorescent, µm-sized aggregates | – | no infectivity enhancement can be observed | 1±0 | no association with cellular membranes | do not enhance infectivity | –
6 | CCCCCCCCCCCCCCCC(=O)N[C@@H](CCCCN)C(=O)N[C@@H](Cc1ccc(O)cc1)C(=O)N[C@H](C(=O)N[C@@H](Cc1c[nH]cn1)C(=O)N[C@@H](CCC(N)=O)C(=O)N[C@@H](CC(N)=O)C(=O)N[C@@H](Cc1ccc(O)cc1)C(=O)N[C@H](C(=O)N[C@@H](CCCCN)C(=O)N[C@@H](C)C(=O)N[C@@H](CC(C)C)C(=O)N[C@@H](C)C(=O)NCC(=O)N[C@@H](CCCCN)C(=O)N[C@@H](CC(C)C)C(=O)N[C@H](C(N)=O)C(C)C)[C@@H](C)O)[C@@H](C)CC [Pat26] (Palmitoyl-KYIHQNYTKALAGKLV-NH2) | 51 | fibrillar morphologies | No | Yes | cannot be degraded; also recorded: not efficiently degradable; also recorded: non-degradable PA | -110 | 110 | fluorescent, µm-sized aggregates | 5 | – | 5±2 | association with cellular membranes | does not enhance infectivity | –
7 | CCCCCCCCCCCCCCCC(=O)N[C@@H](CC(N)=O)C(=O)N[C@@H](Cc1ccccc1)C(=O)N[C@@H](Cc1ccc(O)cc1)C(=O)N[C@@H](CC(C)C)C(=O)N[C@@H](CCC(N)=O)C(=O)N[C@H](C(=O)N[C@@H](CC(N)=O)C(=O)N[C@@H](CCCCN)C(=O)N[C@H](C(=O)N[C@@H](CC(N)=O)C(=O)N[C@@H](CCCCN)C(N)=O)[C@@H](C)CC)C(C)C [Pat27] (Palmitoyl-NFYLQVNKINK-NH2) | 60 | fibrillar morphologies | Yes | Yes | cannot be degraded; also recorded: not efficiently degradable; also recorded: non-degradable PA | -123 | 123 | fluorescent, µm-sized aggregates | 5 | – | 5±1 | association with cellular membranes | – | –
8 | CCCCCCCCCCCCCCCC(=O)NCC(=O)NCC(=O)NCC(=O)N[C@@H](CO)C(=O)N[C@@H](CO)C(=O)N[C@@H](CCCCN)C(=O)N[C@@H](CCCCN)C(=O)N[C@@H](CCCCN)C(N)=O [Pat28] (Palmitoyl-GGGSSKKK-NH2) | 26 | fibrillar morphologies | No | Yes | – | – | – | no fluorescent, µm-sized aggregates | – | – | 2±1 | no association with cellular membranes | – | –
